Laboratory results reported in patent US6492404B1, “Thiazolylcinnamonitriles and pest controlling agents” (Nippon Soda Co., Ltd., priority 1998, dated 2002).

Tested on: Pseudaletia separata Walker
Assay: Effects on Pseudaletia separata Walker (corn leaf immersion, third instar larvae)
Format: in vivo
Settings: wettable powder diluted to 125 ppm, corn leaves immersed 30 seconds, 25° C., 65% RH, assessed 6 days after treatment
Protocol: Effects on Pseudaletia separata Walker
According to the instructions of the wettable powder described in the above Example 2, a wettable powder was diluted with water to make the compound concentration 125 ppm. Corn leaves were immersed in the solution for 30 seconds, air-dried and placed in a Petri dish containing 5 third instar larvae of Pseudaletia separata Walker. The dish was covered with a glass lid and placed in a thermostatic chamber of temperature of 25° C. and relative humidity of 65%. Mortality was assessed 6 days after treatment. Each test was replicated twice.

Work on Cc1cc(Cl)ccc1N=CN(C)C [Chlordimeform] yielded a mortality of 40%.
